Assay results as given in patent US20230124862A1, “BISMUTH THIOL COMPOUNDS AND COMPOSITIONS AND METHODS OF TREATING MICROBIAL CO-INFECTIONS” (Microbion Corporation, priority 2020, published 2023).
Values after ≈ are worked out from the molar mass of the structure shown. Values joined by “and” are separate entries in the source; they are usually repeats but may differ in a detail not shown here. Equal entries are not always repeated. Where two headings read alike, the source gives them in different places.

What was measured:
[1] = test system: S. aureus; experiment: Broth microdilution MIC (Example 11); type: cell-based, Staphylococcus aureus; conditions: Staphylococcus aureus, ATCC 29213 / MSSA, S. aureus MMX 101 (ATCC 29213), QC, MSSA
[2] = test system: Enterococcus spp.; experiment: Broth microdilution MIC (Example 11); type: cell-based, E. faecalis, E. faecium
[3] = test system: S. aureus; conditions: S. aureus MMX 101 (ATCC 29213); cited from earlier work
[4] = test system: S. pneumoniae; conditions: S. pneumoniae MMX 6837 (ATCC 49619); cited from earlier work
[5] = test system: P. aeruginosa; experiment: Checkerboard FIC/FICI assay; type: cell-based, Pseudomonas aeruginosa; conditions: for FICB / MICB: Meropenem in combination with BisEDT; for MIC: Pseudomonas aeruginosa, Meropenem alone (checkerboard with BisEDT), read-out: Drug B MIC
[6] = test system: Burkholderia cepacia complex; experiment: Checkerboard FIC/FICI assay; type: cell-based, Burkholderia spp.; conditions: for MIC: Meropenem alone, panel with BisEDT, read-out: Drug B MIC
[7] = test system: Enterobacteriaceae; conditions: E. coli MMX 102 (ATCC 25922); CLSI QC ranges shown in parenthesis; cited from earlier work
[8] = test system: P. aeruginosa and A. baumannii; conditions: P. aeruginosa MMX 103 (ATCC 27853); CLSI QC ranges shown in parenthesis; cited from earlier work
[9] = test system: beta-hemolytic streptococci; experiment: Broth microdilution MIC (Example 11); type: cell-based, S. pyogenes, S. agalactiae
[10] = test system: S. pneumoniae; experiment: Broth microdilution MIC (Example 11); type: cell-based, Streptococcus pneumoniae
[11] = E. faecalis MMX 8960, VRE, Lev^R Cip^R Ery^R, read-out: MIC
[12] = E. faecalis MMX 8962, VRE, Lev^R Cip^R Ery^R, read-out: MIC
[13] = E. faecium MMX 485, VRE vanA, Lev^R Cip^R Ery^R, read-out: MIC
[14] = E. faecium MMX 752, VRE vanA, Lev^R Cip^R Ery^R, read-out: MIC
[15] = P. aeruginosa 6322, one value per panel row C-G
[16] = P. aeruginosa 7745, by checkerboard
[17] = P. aeruginosa 8798, by checkerboard
[18] = P. aeruginosa 9108, by checkerboard
[19] = B. cepacia 1793, Meropenem in combination with BisEDT, by checkerboard

**Q.** Which results are given for `CC[C@H]1OC(=O)[C@H](C)[C@@H](O[C@H]2C[C@@](C)(OC)[C@@H](O)[C@H](C)O2)[C@H](C)[C@@H](O[C@@H]2O[C@H](C)C[C@H](N(C)C)[C@H]2O)[C@](C)(O)C[C@@H](C)C(=O)[C@H](C)[C@@H](O)[C@]1(C)O` [Erythromycin]?
**A.** MIC ([1]; read-out: MIC): 0.5 µg/mL (≈ 0.681 µM); MIC [2, 11]: > 64 µg/mL; MIC ([2]; E. faecalis MMX 8961, VRE, Lev^R Cip^R Ery^R, read-out: MIC): > 64 µg/mL; MIC [2, 12]: > 64 µg/mL; MIC [2, 13]: > 64 µg/mL; MIC [2, 14]: > 64 µg/mL; CLSI QC range of MIC [3]: (0.25-1) μg/mL; CLSI QC range of MIC [4]: (0.03-0.12) μg/mL

**Q.** Which results are given for `C[C@@H](O)[C@H]1C(=O)N2C(C(=O)O)=C(S[C@@H]3CN[C@H](C(=O)N(C)C)C3)[C@H](C)[C@H]12` [Meropenem]?
**A.** FICB [5, 15]: 1; MICB [5, 15]: 16 µg/mL; FICB [5, 16]: 0.25 and 0.5; MICB [5, 16]: 4 µg/mL and 8 µg/mL; FICB [5, 17]: 1; MICB [5, 17]: 32 µg/mL; FICB [5, 18]: 1; MICB [5, 18]: 0.001 µg/mL; MIC ([5]; P. aeruginosa 6977): 8 µg/mL; MIC ([5]; P. aeruginosa 7745): 16 µg/mL; MIC ([5]; P. aeruginosa 8798): 32 µg/mL; FICB ([6]; B. cenocepacia 548, FIC of Meropenem (Drug B) in combination with BisEDT): 0.5 and 1; MICB ([6]; B. cenocepacia 548, MIC of Meropenem (Drug B) in combination with BisEDT): 2 µg/mL and 4 µg/mL; MIC ([6]; B. cenocepacia 548): 4 µg/mL; FICB ([6]; B. cenocepacia 813, FIC of Meropenem (Drug B) in combination with BisEDT): 0.5 and 1; MICB ([6]; B. cenocepacia 813, MIC of Meropenem (Drug B) in combination with BisEDT): 1 µg/mL and 2 µg/mL; MIC ([6]; B. cenocepacia 813): 2 µg/mL; FICB ([6]; B. cepacia 546, Meropenem in combination with BisEDT, by checkerboard): 1 and 2; FICB [6, 19]: 2 and 4; MICB [6, 19]: 8 µg/mL and 16 µg/mL; FICB ([6]; B. multivorans 1795, FIC of Meropenem (Drug B) in combination with BisEDT): 1; MICB ([6]; B. multivorans 1795, MIC of Meropenem (Drug B) in combination with BisEDT): 4 µg/mL; MIC ([1]; read-out: MIC): 0.06 µg/mL (≈ 0.156 µM); MIC [2, 11]: 8 µg/mL (≈ 20.9 µM); MIC [2, 12]: 2 µg/mL (≈ 5.22 µM); MIC [2, 13]: > 64 µg/mL; MIC [2, 14]: > 64 µg/mL; MIC, CLSI QC range [7]: (0.008-0.06) μg/mL; MIC, CLSI QC range [8]: (0.25-1) μg/mL; CLSI QC range of MIC [3]: (0.03-0.12) μg/mL; CLSI QC range of MIC [4]: (0.06-0.25) μg/mL

**Q.** What does the source list for `CN[C@H](CC(C)C)C(=O)N[C@H]1C(=O)N[C@@H](CC(N)=O)C(=O)N[C@H]2C(=O)N[C@H]3C(=O)N[C@H](C(=O)N[C@H](C(=O)O)c4cc(O)cc(O)c4-c4cc3ccc4O)[C@H](O)c3ccc(c(Cl)c3)Oc3cc2cc(c3O[C@@H]2O[C@H](CO)[C@@H](O)[C@H](O)[C@H]2O[C@H]2C[C@](C)(N)[C@H](O)[C@H](C)O2)Oc2ccc(cc2Cl)[C@H]1O` [vancomycin, reference compound]?
**A.** MIC [1]: 1 µg/mL (≈ 0.69 µM); MIC [2]: > 64 µg/mL; MIC ([2]; E. faecalis MMX 8960, VRE, Lev^R Cip^R Ery^R): >64 µg/mL; MIC ([2]; E. faecalis MMX 8962, VRE, Lev^R Cip^R Ery^R): >64 µg/mL; MIC ([2]; E. faecium MMX 485, VRE vanA, Lev^R Cip^R Ery^R): >64 µg/mL; MIC ([2]; E. faecium MMX 752, VRE vanA, Lev^R Cip^R Ery^R): >64 µg/mL; MIC ([9]; Streptococcus pyogenes, S. pyogenes MMX 3820, ERY^R CLI^R): 0.5 µg/mL (≈ 0.345 µM); MIC ([9]; Streptococcus pyogenes, S. pyogenes MMX 3919, ERY^R): 0.5 µg/mL (≈ 0.345 µM); MIC ([9]; Streptococcus pyogenes, S. pyogenes MMX 3929, ERY^R CC^R): 0.5 µg/mL (≈ 0.345 µM); MIC ([9]; Streptococcus pyogenes, S. pyogenes MMX 5091, ERY^R CC^R): 0.5 µg/mL (≈ 0.345 µM); CLSI QC range of MIC [3]: (0.5-2) μg/mL; CLSI QC range of MIC [4]: (0.12-0.5) μg/mL

**Q.** Which results are given for Penicillin?
**A.** MIC ([10]; S. pneumoniae MMX 880, Lev^R SXT^R CC^R Ery^R Pen^R): 2 µg/mL; MIC ([10]; S. pneumoniae MMX 937, Mem^R SXT^R CC^R Ery^R Per^R): 4 µg/mL; MIC ([10]; S. pneumoniae MMX 3959, CC^R Ery^R): 0.12 µg/mL; MIC ([10]; S. pneumoniae MMX 5440, Mem^R SXT^R CC^R Ery^R Pen^R): 4 µg/mL; MIC ([10]; S. pneumoniae MMX 5445, Mem^R SXT^R CC^R Ery^R Pen^R): 4 µg/mL; MIC ([10]; S. pneumoniae MMX 6837 (ATCC 49619), QC): 0.25 µg/mL; MIC ([10]; S. pneumoniae MMX 8133, Mem^R SXT^R CC^R Ery^R Pen^R): 4 µg/mL; MIC ([9]; S. agalactiae MMX 3741, ERY^R CC^R): 0.03 µg/mL; MIC ([9]; S. agalactiae MMX 3743, ERY^R CC^R): 0.06 µg/mL; MIC ([9]; S. agalactiae MMX 4077, ERY^R CC^R): 0.06 µg/mL; MIC ([9]; S. agalactiae MMX 4079, ERY^R CC^R Pen^R MEM^R): 2 µg/mL; MIC ([9]; S. agalactiae MMX 4086, ERY^R CC^R): 0.06 µg/mL; MIC ([9]; S. pyogenes MMX 3068, Ery^R): ≤0.008 µg/mL; MIC ([9]; S. pyogenes MMX 3820, ERY^R CLI^R): ≤0.008 µg/mL; MIC ([9]; S. pyogenes MMX 3919, ERY^R): ≤0.008 µg/mL; MIC ([9]; S. pyogenes MMX 3929, ERY^R CC^R): ≤0.008 µg/mL; MIC ([9]; S. pyogenes MMX 5091, ERY^R CC^R): ≤0.008 µg/mL; CLSI QC range of MIC [4]: (0.25-1) μg/mL
